Reference: patent publication US6114175A, “Compound for the antemortem diagnosis of Alzheimer's Disease and in vivo imaging and prevention of amyloid deposition” (priority 1998, dated 2000)
“Also recorded” adds a separate entry of the source. Like-named read-outs stand apart in the source and are kept apart here.

Experiments:
AD brain [1] = test: Histologic staining of human AD brain sections; details: fluorescence microscopy
Method: 26: 241-242 (1973) with 1 mM 1,4-bis(3-carboxy-4-hydroxyphenylethenyl)-benzene substituted for Congo red, but the procedure was otherwise identical. Stained slides were examined using fluorescence microscopy.
(§1) The staining method was that of Stokes and Trickey, J. Clin. Pathol. 26: 241-242 (1973) with 1,4-bis(3-carboxy-4-hydroxyphenylethenyl)-benzene substituted for Congo red.

[2] = system: transgenic mouse brain [Tg(HuAPP695.SWE)2576]; test: Histologic staining of transgenic mouse brain sections; details: fluorescence microscopy
Excerpt: as §1

Aβ(10-43) [3] = molecular target: T1, Aβ(10-43) (Homo sapiens, UniProt P05067); test: Inhibition of [^14 C]Chrysamine G binding to Aβ(10-43); details: for potency/affinity relative to another compound: Congo red or the series
[4] = Octanol/water partitioning; details: phosphate buffered saline, pH 7.4
AD brain [5] = test: Scatchard analysis of [^14 C]CG binding to AD brain; set-up: species or system human
control brain [6] = test: Scatchard analysis of [^14 C]CG binding to control brain; set-up: species or system human
AD brain [7] = test: Total [^14 C]Chrysamine G binding in AD brain homogenates
Aβ(10-43) [8] = molecular target: T1, Aβ(10-43)
[9] = Tissue levels and metabolism of [^14 C]Chrysamine G in mice
control brain [10] = test: Total [^14 C]Chrysamine G binding in control brain homogenates
Aβ(10-43) [11] = molecular target: T1, Aβ(10-43); test: Scatchard analysis of Chrysamine G binding to synthetic Aβ(10-43)
PC-12 cells = test: Protection from Aβ(25-35)-induced toxicity in PC-12 cells (MTT reduction); details: for protection against Aβ(25-35)-induced toxicity: 1 μM Aβ(25-35) (FIG. 14)
[12] = cited from earlier work
[13] = mouse; Tubis et al.; cited from earlier work
Aβ [14] = details: cited from earlier work
pancreatic islet cells = details: cited from earlier work
Aβ [15] = details: Lorenzo and Yankner; cited from earlier work

T1 sequence (P05067 681-714): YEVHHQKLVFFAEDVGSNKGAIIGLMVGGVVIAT

For O=C(O)c1cc(C=Cc2ccc(C=Cc3ccc(O)c(C(=O)O)c3)cc2)ccc1O [1,4-bis(3-carboxy-4-hydroxyphenylethenyl)-benzene], the “staining of human AD brain” value (AD brain [1]) was “much more intense than that observed with Chrysamine G, Congo red, or Thioflavin S; also recorded: Visible are a large number of neuritic plaques, a neurofibrillary tangle and frequent neuropil threads” and the “staining of transgenic mouse brain” value [2] was “intensely stained plaque”.

In the case of O=C(O)c1cc(N=Nc2ccc(-c3ccc(N=Nc4ccc(O)c(C(=O)O)c4)cc3S(=O)(=O)O)c(S(=O)(=O)O)c2)ccc1O [2,2'-(SO3)2 CG], the “binding activity” value (Aβ(10-43) [3]) is reported as “inactivity”.

In the case of O=C(O)c1cc(N=Nc2ccc(-c3ccc(N=Nc4ccc(O)c(C(=O)O)c4)c(C(=O)O)c3)cc2C(=O)O)ccc1O [3,3'-(COOH)2 CG], the “loss of activity from Chrysamine G” value (Aβ(10-43) [3]; relative to Chrysamine G) is reported as 7 fold.

With O=C(O)c1cc(N=Nc2ccc(-c3ccc(N=Nc4ccc(O)c(C(=O)O)c4)c(Br)c3)cc2Br)ccc1O [3,3'-Br2 CG] the “potency/affinity relative to another compound” value (Aβ(10-43) [3]; relative to Chrysamine G) was “about half that of Chrysamine G”.

For O=C(O)c1cc(N=Nc2ccc(-c3ccc(N=Nc4ccc(O)c(C(=O)O)c4)c(Cl)c3)cc2Cl)ccc1O [3,3'-Cl2 CG], the “potency/affinity relative to another compound” value (Aβ(10-43) [3]; relative to Chrysamine G) was “about half that of Chrysamine G”.

For O=C(O)c1cc(N=Nc2ccc(-c3ccc(N=Nc4ccc(O)c(C(=O)O)c4)c(I)c3)cc2I)ccc1O [3,3'-I2 CG], the logD [4] was 2.05 and the “potency/affinity relative to another compound” value (Aβ(10-43) [3]; relative to Chrysamine G) was “about half that of Chrysamine G”.

With O=C(O)c1cc(N=Nc2ccc(-c3ccc(N=Nc4ccc(O)c(C(=O)O)c4)c(I)c3)cc2)ccc1O [3-ICG] the “potency/affinity relative to another compound” value (Aβ(10-43) [3]; relative to Chrysamine G) was “slightly more potent than Chrysamine G”.

In the case of O=C(O)c1cc(F)cc(N=Nc2ccc(-c3ccc(N=Nc4cc(F)cc(C(=O)O)c4O)cc3)cc2)c1O [(5-FSA)CG], the “potency/affinity relative to another compound” value (Aβ(10-43) [3]; relative to Chrysamine G) is reported as “one-third as potent as Chrysamine G itself”.

For O=C(O)c1c(O)ccc(N=Nc2ccc(-c3ccc(N=Nc4ccc(O)c(C(=O)O)c4O)cc3)cc2)c1O [(6-OHSA)CG], the Ki (Aβ(10-43) [3]) was 0.094 ± 0.02 µM and the “potency/affinity relative to another compound” value (Aβ(10-43) [3]; relative to Chrysamine G) was “highest affinity compound in this series”.

For O=C(O)c1cc(N=Nc2ccc(-c3ccc(N=Nc4ccc(O)c(C(=O)O)c4)cc3)cc2)ccc1O [Chrysamine G, 4,4'-bis(3-carboxy-4-hydroxyphenylazo)-biphenyl], the “Bmax, AD brain (Table 1)” value (AD brain [5]; n = 5) was 0.784 ± .061 pmol/μg prot, the Kd (AD brain [5]; n = 5, read-out: KD, AD brain (Table 1)) was 0.39 ± 0.048 µM and the “Bmax in AD brain higher than control” value (AD brain [5]; p=0.09, not significant) was 36%. The “KD in AD brain lower than control” value (AD brain [5]; p=0.29, not significant) was 16%, the “Bmax (typical AD brain sample)” value (AD brain [5]; sample with 48 NP/×200 magnification) was 790 fmol/μg protein and the Kd (AD brain [5]; sample with 48 NP/×200 magnification, read-out: KD (typical AD brain sample)) was 0.35 µM. The “Bmax, control brain (Table 1)” value (control brain [6]; n = 6) was 0.576 ± .092 pmol/μg prot, the Kd (control brain [6]; n = 6, read-out: KD, control brain (Table 1)) was 0.47 ± 0.049 µM and the “Bmax (typical control sample)” value (control brain [6]; single typical control) was 614 fmol/μg protein. The Kd (control brain [6]; single typical control, read-out: KD (typical control sample)) was 0.48 µM, the logD [4] was 1.78 and the “saturable (specific) binding as share of total binding in AD brain” value (AD brain [7]; 20 μM unlabelled CG defines non-saturable) was 60-80%. The “correlation (r) of [^14 C]CG binding with NPs” value (AD brain [7]; AD brains alone, p=0.007) was 0.59, the “correlation (r) of [^14 C]CG binding with NFTs” value (AD brain [7]; AD brains alone, p=0.026) was 0.50 and the “total binding, Head of Caudate” value (AD brain [7]; AD, n = 7, p = 0.14) was 123 ± 22 fmol/μg protein. For the same compound, the “total binding, Frontal Pole” value (AD brain [7]; AD, n = 10, p < 0.006) was 124 ± 16 fmol/μg protein, the “total binding, Superior/Middle Frontal” value (AD brain [7]; AD, n = 11, p < 0.005) was 130 ± 21 fmol/μg protein and the “total binding, Superior Temporal” value (AD brain [7]; AD, n = 11, p < 0.02) was 121 ± 14 fmol/μg protein. For the same compound, the “total binding, Inferior Parietal” value (AD brain [7]; AD, n = 11, p < 0.03) was 137 fmol/μg protein, the “total binding, Cerebellum” value (AD brain [7]; AD, n = 11, p = 0.91) was 73 ± 9 fmol/μg protein and the “correlation (r) of CG binding with NP counts” value (AD brain [7]; brains with cerebrovascular amyloid, p=0.15) was 0.49. For the same compound, the “correlation (r) of CG binding with NP counts” value (AD brain [7]; brains without amyloid angiopathy, p=0.01) was 0.79, the “correlation (r) of [^14 C]CG binding with NFTs” value (AD brain [7]; controls included, p=0.001) was 0.60 and the “correlation (r) of [^14 C]CG binding with NPs” value (AD brain [7]; controls included, p=0.001) was 0.69. The “overlap of binding between control and AD samples” value (AD brain [7]; superior/middle frontal cortex) was “no overlap between control and any of the AD samples”, the “dissociation t1/2” value (Aβ(10-43) [8]) was 55 ± 9.4 s and the “metabolism” value ([9]; 60 min after i.v. injection, brain and liver) was “no significant metabolism; also recorded: essentially all of the radioactivity found in the brain and liver proved to be unchanged Chrysamine G”. For the same compound, the “entry into brain” value ([9]; normal mouse brain) was “does get into normal mouse brain, and the brain/blood ratio is high”, the “total binding, Head of Caudate” value (control brain [10]; n = 4) was 73 ± 11 fmol/μg protein and the “total binding, Frontal Pole” value (control brain [10]; n = 6) was 58 ± 8 fmol/μg protein. The “total binding, Cerebellum” value (control brain [10]; n = 8) was 75 ± 13 fmol/μg protein, the “total binding, Inferior Parietal” value (control brain [10]; n = 8) was 76 ± 13 fmol/μg protein and the “total binding, Superior Temporal” value (control brain [10]; n = 8) was 66 ± 17 fmol/μg protein. The “total binding, Superior/Middle Frontal” value (control brain [10]; n = 8) was 54 ± 10 fmol/μg protein, the “energy of binding (from KD)” value (Aβ(10-43) [11]; KD 0.26 μM) was “roughly 38 KJ/mole” and the “Bmax, lower affinity component” value (Aβ(10-43) [11]; less well defined) was 18.7 nmoles Chrysamine G/mg Aβ(10-43). For the same compound, the Kd (Aβ(10-43) [11]; read-out: KD, higher affinity component (Scatchard), Aβ(10-43), two-site model) was 0.26 µM, the Kd (Aβ(10-43) [11]; read-out: KD, lower affinity component (Scatchard), less well defined) was 4.01 µM and the “Bmax, higher affinity component” value (Aβ(10-43) [11]; two-site model) was 3.18 nmoles Chrysamine G/mg Aβ(10-43). The “protection against Aβ(25-35)-induced toxicity” value (PC-12 cells) was “protective effects at 0.1 and 1 μM”, the “protective effect dependence” value (PC-12 cells; 0.01 to 10 μM Aβ(25-35) and 0.03 to 20 μM CG) was “protective effect which is dependent on both the concentration of Aβ(25-35) (FIG. 12) as well as the concentration of Chrysamine G” and the minimal effective concentration (PC-12 cells; Rattus norvegicus, PC-12, 24 h, read-out: concentration at which protective effect is evident) was 0.2 µM. The “MTT reduction in the absence of Aβ(25-35) vs control” value (PC-12 cells; any of the Chrysamine G concentrations) was “no significant difference”.

In the case of Nc1c(/N=N/c2ccc(-c3ccc(/N=N/c4cc(S(=O)(=O)O)c5ccccc5c4N)cc3)cc2)cc(S(=O)(=O)O)c2ccccc12 [Congo red], the “blood-brain barrier crossing” value ([12]; guinea pig, in vivo) is given as “does not cross the blood-brain barrier well”, the brain/kidney ratio ([12]; guinea pigs) is given as “approximately 0.07” and the LD50 [13] is given as 190 mg/kg. For the same compound, the “concentration for complete protection against Aβ-induced toxicity” value (Aβ [14]) was at most 20 µM, the “concentration for protection against Aβ-induced toxicity” value (Aβ [14]) was “over 2 μM” and the “effect on Aβ-induced neurotoxicity” value (Aβ [14]; in vitro) was “inhibits fibrillar Aβ neurotoxicity; also recorded: inhibits Aβ-induced neurotoxicity and cell degeneration in vitro”. The “effect on amylin toxicity to pancreatic islet cells” value (pancreatic islet cells) was “inhibit pancreatic islet cell toxicity; also recorded: protect pancreatic islet cells from the toxicity caused by amylin”, the “effect on aggregation of Aβ” value (Aβ [15]) was “does inhibit aggregation of Aβ” and the logD [4] was -0.177. The Ki (Aβ(10-43) [3]; read-out: Ki for inhibition of [^14 C]Chrysamine G binding to Aβ(10-43), [^14 C]Chrysamine G 0.100-0.125 μM) was 2.8 µM.

In the case of O=C(O)c1cc(N=Nc2ccccc2)ccc1O [aniline derivative], the Ki (Aβ(10-43) [3]) is reported as 73 µM, the “binding activity” value (Aβ(10-43) [3]) is reported as “decrease in affinity” and the “energy of binding (from Ki)” value (Aβ(10-43) [3]; Ki of 73 μM) is reported as 23 kJ/mol. The “expected energy of binding (one-half of Chrysamine G)” value (Aβ(10-43) [3]; predicted value) was “about 19 KJ/mole”.

With Oc1ccc(N=Nc2ccc(-c3ccc(N=Nc4ccc(O)cc4)cc3)cc2)cc1 [phenol derivative] the “binding activity” value (Aβ(10-43) [3]) was “completely destroyed binding affinity; also recorded: does not bind to synthetic Aβ” and the “protection against Aβ(25-35)-induced toxicity” value (PC-12 cells) was “no protective effects, and perhaps enhanced the toxicity of Aβ”.

In the case of O=C(O)c1ccccc1O [salicylic acid], the “binding activity” value (Aβ(10-43) [3]) is reported as “total lack of binding activity; also recorded: inactivity”.
